Measured values: publication PMC10049495, “Antitumor Activity of PEGylated and TEGylated Phenothiazine Derivatives: Structure–Activity Relationship” (International Journal of Molecular Sciences, 2023)
Read-outs that look alike come from different tables or passages of the source.

Legend:
[1] = system: MeWo; conditions: cited from earlier work
[2] = system: CT-26; conditions: cited from earlier work
[3] = system: HeLa; conditions: cited from earlier work
[4] = system: NHDF; design: method as in earlier work; conditions: cited from earlier work
[5] = system: HepG2; conditions: cited from earlier work
[6] = system: cervical carcinoma (HeLa) cells; test: Cytotoxicity MTS assay on HeLa; type: cell-based, human; conditions: for Selectivity index (SI): IC50 NHDF / IC50 HeLa
Description: (§1) Cell culture: NHDF, HeLa, HOS, HepG2, MCF7, MeWo and CT-26 cells were cultivated in complete Eagle’s Minimal Essential Medium alpha (aMEM) containing a 1% Penicillin–Streptomycin–Amphotericin B mixture and a 10% fetal bovine serum under 5% CO2 humidified atmosphere at 37 °C. LN-229 cells were cultivated in DMEM with a 1% Penicillin–Streptomycin–Amphotericin B mixture and a 5% fetal bovine serum. U-118 cells were cultivated in DMEM with a 1% Penicillin–Streptomycin–Amphotericin B mixture and a 10% fetal bovine serum. StemPro™ Accutase™ Cell Dissociation Reagent was used for passaging MeWo and U-118 cells, and TrypLE Express was used for all other cell lines.
(§2) The working solutions were prepared by diluting the stock solutions with complete medium so that the final concentration of DMSO in the cell culture was 1%. The working solutions were used for incubation. Control cells were treated only with complete cell culture medium containing 1% DMSO.
(§3) Cytotoxicity MTS assay: In order to perform the MTS assay, cells were placed in culture-treated 96-well plates at densities of 5 × 10^3 cells/well (NHDF and CT-26), 7 × 10^3 cells/well (MCF7) and 10 × 10^3 cells/well (HOS, HeLa, HepG2, MeWo, LN-229, U-118) in 100 μL of a MEM medium/well and allowed to adhere for 24 h. After 24 h, the culture medium was replaced with the tested compound solutions at various concentrations, and the plates were incubated for another 48 h. Before the final reading, 20 μL CellTiter 96® Aqueous One Solution/well was added, and the plates were incubated for 1–4 h. Finally, the absorbance was recorded with a microplate reader at λ = 490 nm. The relative cell viability was expressed as a percentage of the viability of control, and the half maximal inhibitory concentration (IC50) was determined from the graphical representation of the cell viability vs. concentration. Graphical data were expressed as means ± standard error of the mean (S.E.M.). Statistical analysis was made with two-way ANOVA using Tukey’s multiple comparisons test. The difference was considered significant when p < 0.05. Data analysis was performed with GraphPad Prism software version 7.00 for Windows.

[7] = Complex formation with Mg2+ (estimate of farnesyltransferase inhibition), FTIR/UV-vis; conditions: 2/1 compound/MgCl2, 2 days at 37 °C, FTIR and UV-vis; taken as estimate of farnesyltransferase inhibition
Description: To estimate the ability of the studied compounds to inhibit the FT, their ability to bind the Zn^2+ or Mg^2+ ions was investigated by incubation in similar conditions as in vitro antitumor tests. The experiments indicated the ability of TEGylated derivatives to bind Mg^2+ ions, as follows.
After that, all the solutions were lyophilized, and the solid samples obtained were subjected to the FTIR spectroscopy measurements. Then, the mixtures that indicated complex formation were dissolved in DMSO, and their UV-vis spectra were recorded.

[8] = system: liver cancer (HepG2) cells; test: Cytotoxicity MTS assay on HepG2; type: cell-based, human; conditions: for IC50: HepG2, 48 h; for Selectivity index (SI): IC50 NHDF / IC50 HepG2
Description: as §1, §2, §3

[9] = system: osteosarcoma (HOS) cells; test: Cytotoxicity MTS assay on HOS; type: cell-based, human; conditions: Homo sapiens, 48 h, tested 0.01-0.3 mM, read-out: Half maximal inhibition concentration (IC50)
Description: as §1, §2, §3

[10] = Cytotoxicity MTS assay on normal fibroblasts; type: cell-based, human; conditions: human, normal human dermal fibroblasts (NHDF), read-out: cell viability
Description: as §1, §2, §3

[11] = system: normal human dermal fibroblasts (NHDF); test: Cytotoxicity MTS assay on normal fibroblasts; type: cell-based; conditions: Homo sapiens, 48 h, tested 0.01-0.3 mM, read-out: Half maximal inhibition concentration (IC50)
Description: as §1, §2, §3

[12] = Solubility test in water with 1% DMSO; type: physicochemical; conditions: water with 1% of DMSO, read-out: concentration up to which the compound is soluble
Description: Solubility tests were performed to establish the maximum concentration of the compounds that might be used for in vitro tests by dissolving 0.003 mmol of compound in 1mL of water (H2O) with 1% of DMSO. The amount of solvent was increased until the compound was completely dissolved. The volume of solvent corresponding to the solving point was used to calculate the concentration. The TEGylated compounds were soluble under 0.3 mM (PTF) and 0.2 mM (PTMA, PTEA), and PEGylated compounds were soluble at to a concentration of 2 mM.

[13] = DPPH radical scavenging activity; conditions: DPPH, 0.0019-1 mM
Text: In this light, the antioxidant activity of the studied phenothiazine derivatives was investigated using DPPH assay, measuring the dependence of the free radical inhibition on the concentration as highlighted by a decreasing of the absorbance of DPPH when the concentration of the compound is increasing. The results, expressed in percentage of inhibition, are represented in Figure 4.
Ex Vivo Radical Scavenging Activity: In order to evaluate antioxidant activity of the studied compounds, a bleaching method of the 1,1-diphenyl-2-picryl hydrazyl (DPPH) radical was used. Briefly, a stock solution of 2 mM of each compound in ethanol was prepared and then diluted to obtain 10 different concentrations from 1 mM to 0.0019 mM using a 96-well plate. The diluted solutions with different concentrations were mixed with an equal volume of ethanolic DPPH solution (0.05 mg/mL), and the mixtures were incubated in the dark at room temperature […] for 1 h. After incubation, the absorbance was read at 517 nm. Inhibition percentage was calculated using Equation (2), where Ac is the absorbance of the control sample (DPPH) and As is the absorbance of the mixtures. All measurements were made in triplicate. I % = (Ac-As)/Ac × 100 (2)

[14] = system: glioblastoma (LN229) cells; test: Cytotoxicity MTS assay on LN229; type: cell-based, human; conditions: Homo sapiens, LN-229, LN229, 48 h, tested 0.01-0.3 mM, read-out: Half maximal inhibition concentration (IC50)
Description: as §1, §2, §3

[15] = system: breast cancer (MCF7) cells; test: Cytotoxicity MTS assay on MCF-7; type: cell-based, human; conditions: for IC50: Homo sapiens, MCF7, MCF-7, 48 h, MTS, tested 0.01-0.3 mM, read-out: Half maximal inhibition concentration (IC50); for Selectivity index (SI): IC50 NHDF / IC50 MCF7
Description: as §1, §2, §3

[16] = system: glioblastoma cell line (U-118); test: Cytotoxicity MTS assay on U-118; type: cell-based, human; conditions: Homo sapiens; U-118, 48 h, MTS; tested 0.01-0.3 mM; read-out: Half maximal inhibition concentration (IC50)
Description: as §1, §2, §3

[17] = system: malignant melanoma (MeWo) cells; test: Cytotoxicity MTS assay on MeWo; type: cell-based, human; conditions: Homo sapiens; MeWo, 48 h, MTS; tested 0.01-0.3 mM; read-out: Half maximal inhibition concentration (IC50)
Description: as §1, §2, §3

[18] = system: mouse colon carcinoma cell line (CT26); test: Cytotoxicity MTS assay on CT-26; type: cell-based; conditions: for Selectivity index (SI): IC50 NHDF / IC50 CT-26; for IC50: CT-26, 48 h
Description: as §1, §2, §3

[19] = system: MCF-7; conditions: reference cell empty, probably merged; cited from earlier work
[20] = Glutamine imination/transimination (amino acid binding) followed by NMR; conditions: 1/1 molar ratio with glutamine, MEM medium, 37 °C, 48 h
Description: The ability of the studied compounds to bind amino acids by imitation or transamination processes was investigated for glutamine amino acid. To do this, all compounds were incubated in the presence of glutamine for 48 h in a MEM solution to simulate in vitro tests on cancer cell lines. After incubation, the water was removed by lyophilization, and the crude solid was analyzed by NMR. […] Additional information about imine formation was obtained from the H,C-HSQC spectrum (Figure S2). In this type of heteronuclear bidimensional spectrum, a proton–carbon direct bond correlation signal was obtained between the proton resonating at 8.15 ppm and the carbon resonating at 160.5 ppm.
The mixtures were incubated at 37 °C for 48 h in order to simulate the in vitro conditions of antitumor determinations. After the incubation, all the samples were lyophilized, dissolved in DMSO-d6 and subjected to NMR spectroscopy analysis. The samples that indicated the imine formation were further investigated by recording the ^1H, ^15N HMBC and ^1H, ^13C HSQC NMR spectra. The ^1H-NMR and ^1H, ^15N HMBC NMR spectra of the glutamine dissolved in a mixture of 9/1 H2O/D2O were also provided as reference in order to determine which nitrogen was involved in the imine linkage. After the NMR studies, the same samples were diluted with DMSO to obtain a solution of 0.33 mM in order to provide their UV-vis spectra.

[21] = Homo sapiens, MTS, tested 0.01-0.3 mM, read-out: Half maximal inhibition concentration (IC50)
[22] = Homo sapiens, HeLa, 48 h, MTS, tested 0.01-0.3 mM, read-out: Half maximal inhibition concentration (IC50)
[23] = Mus musculus, CT26, MTS, tested 0.01-0.3 mM, read-out: Half maximal inhibition concentration (IC50)

| Structure (SMILES) | IC50 [1] | IC50 [2] | IC50 [4] | IC50 [5] | Selectivity index (SI) [6] | ability to bind Mg^2+ ions (in words) [7] | IC50 [8, 21] | Selectivity index (SI) [8] | IC50 [9] | IC50 [11] | solubility [12] | radical scavenging capacity (in words) [13] | IC50 [14] | IC50 [15] | Selectivity index (SI) [15] | IC50 [16] | IC50 [17] | Selectivity index (SI) [18] | IC50 [6, 22] | ability to bind glutamine by imination/transimination (in words) [20] | further results |
| --- | --- | --- | --- | --- | --- | --- | --- | --- | --- | --- | --- | --- | --- | --- | --- | --- | --- | --- | --- | --- | --- |
| O=c1[nH]cc(F)c(=O)[nH]1 [5-Florouracil] | 61.5 µM | 300 µM | 25 µM | 253 µM | – | – | – | – | – | – | – | – | – | – | – | – | – | – | – | – | IC50 ([3]; reference cell empty, probably merged): 677 µM |
| COCCOCCOCCN1c2ccccc2Sc2cc(C=O)ccc21 [PTF, 10-(triethylene glycol)-10H-phenothiazine-3-carbaldehyde] | – | – | – | – | 10 | dative bond with magnesium | 50 µM | 3 | > 300 µM | 150 µM | < 300 µM | very low radical scavenging capacity | 186 µM | 108 µM | 1.5 | 190 µM | 147 µM | 2.38 | – | – | viability at 50 µM ([6]; Homo sapiens, HeLa, 0.05 mM, 48 h, MTS, read-out: cell viability): 11%; IC50 ([6]; Homo sapiens, HeLa, 48 h, MTS, read-out: IC50): 15 µM; viability at 100 µM ([8]; Homo sapiens, HepG2, 0.1 mM, 48 h, MTS, read-out: cell viability): 27%; IC50 ([8]; Homo sapiens, MTS, read-out: IC50): 52 µM; viability at 48 h, 0.05 mM ([10]; 0.05 mM): 86%; viability at 48 h, 0.2 mM ([10]; 0.2 mM): 33%; viability at 100 µM ([18]; Mus musculus, CT26, CT-26, 0.1 mM, 48 h, MTS): 30%; IC50 ([18]; Mus musculus, CT26, MTS, read-out: IC50): 63 µM |
| COc1cccc2c1C(=O)c1c(O)c3c(c(O)c1C2=O)C[C@@](O)(C(=O)CO)C[C@@H]3O[C@H]1C[C@H](N)[C@H](O)[C@H](C)O1 [Doxorubicin] | 88 µM | 10 µM | 0.137 µM | 1.03 µM | – | – | – | – | – | – | – | – | – | – | – | – | – | – | – | – | IC50 [19]: 0.07 µM; IC50 [3]: 0.18 µM |
| COCCOCCOCCN1c2ccccc2Sc2cc(/C=N/Cc3ccc(S(N)(=O)=O)cc3)ccc21 [PTMA, 4-((((10-(triethylene glycol)-10H-phenothiazin-3-yl)methylene)amino)methyl)benzenesulfonamide] | – | – | – | – | 6.89 | formation of dative bonds | 83 µM | 2.5 | > 300 µM | 200 µM | < 200 µM | very low radical scavenging capacity | 219 µM | 141 µM | 1.42 | > 300 µM | 287 µM | 2 | 29 µM | glutamine binding process took places in two steps | IC50 [18, 23]: 107 µM |
| COCCOCCOCCN1c2ccccc2Sc2cc(/C=N/CCc3ccc(S(N)(=O)=O)cc3)ccc21 [PTEA] | – | – | – | – | 6.66 | formation of dative bonds | 85 µM | 1.25 | > 300 µM | 107 µM | < 200 µM | very low radical scavenging capacity | 183 µM | 138 µM | – | 170 µM | 239 µM | 1.25 | 15 µM | direct transimination | IC50 [18, 23]: 80 µM |
